# Reference: patent US11014929B2, “Pyrazolopyrimidine compounds and uses thereof” (Incyte Corporation, priority 2016, dated 2021)
# pKi: −log10 of the molar value.
# Biological target: HPK1 (Homo sapiens (Human), UniProt Q92918)
# Experiment: HPK1 Kinase Binding Assay
# Conditions: LanthaScreen tracer 222 binding, active HPK1, one hour incubation at 25° C.
# Experimental: A stock solution of 1 mM test compound was prepared in DMSO. The compound plate was prepared by 3-fold and 11-point serial dilutions. 0.1 μL of the compound in DMSO was transferred from the compound plate to the white 384 well polystyrene plates. The assay buffer contained 50 mM HEPES, pH 7.5, 0.01% Tween-20, 5 mM MgCl2, 0.01% BSA, and 5 mM DTT. 5 μl of 4 nM active HPK1 (SignalChem M23-11G) prepared in the buffer was added to the plate. The enzyme concentration given was based on the given stock concentration reported by the vender. 5 μl of 18 nM tracer 222 (ThermoFisher PV6121) and 4 nM LanthaScreen Eu-Anti GST antibody (ThermoFisher PV5595) were added. After one hour incubation at 25° C., the plates were read on a PHERAstar FS plate reader (BMG Labtech). Ki values were determined.
# Chain of HPK1 (Q92918 1-346): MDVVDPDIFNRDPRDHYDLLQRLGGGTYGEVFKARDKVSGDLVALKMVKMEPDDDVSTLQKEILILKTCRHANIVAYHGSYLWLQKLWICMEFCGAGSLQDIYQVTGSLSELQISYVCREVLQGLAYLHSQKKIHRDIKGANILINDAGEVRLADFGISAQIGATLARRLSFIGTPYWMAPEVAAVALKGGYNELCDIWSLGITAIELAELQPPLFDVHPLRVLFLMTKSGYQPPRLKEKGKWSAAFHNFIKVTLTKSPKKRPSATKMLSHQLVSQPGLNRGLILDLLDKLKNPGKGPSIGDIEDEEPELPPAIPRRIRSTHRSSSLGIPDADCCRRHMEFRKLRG
row,Structure (SMILES),pKi
1,"CN1CCN(c2ccc(-c3n[nH]c4cnc(-c5c(F)ccc6c5CCNC6)nc34)cc2)CC1 [Example 56, 6-Fluoro-5-(3-(4-(4-methylpiperazin-1-yl)phenyl)-1H-pyrazolo[4,3-d]pyrimidin-5-yl)-1,2,3,4-tetrahydroisoquinoline]",≥ 7.00
2,"OCCNc1ncc(-c2n[nH]c3cnc(-c4c(F)cc5c(c4F)CNCC5)nc23)cn1 [Example 91, 2-(5-(5-(6,8-Difluoro-1,2,3,4-tetrahydroisoquinolin-7-yl)-1H-pyrazolo[4,3-d]pyrimidin-3-yl)pyrimidin-2-ylamino)ethanol]",≥ 7.00
3,"CNCc1cc(F)c(-c2ncc3[nH]nc(-c4cnn(C)c4)c3n2)c(OC)c1 [Example 86, 1-(3-Fluoro-5-methoxy-4-(3-(1-methyl-1H-pyrazol-4-yl)-1H-pyrazolo[4,3-d]pyrimidin-5-yl)phenyl)-N-methylmethanamine]",≥ 7.00
4,"COc1cccc(F)c1-c1ncc2[nH]nc(-c3cc(C)n[nH]3)c2n1 [Example 88, 5-(2-Fluoro-6-methoxyphenyl)-3-(3-methyl-1H-pyrazol-5-yl)-1H-pyrazolo[4,3-d]pyrimidine]",≥ 7.00
5,"CNCc1cc(F)c(-c2ncc3[nH]nc(-c4ccc(N5CCN(S(C)(=O)=O)CC5)nc4)c3n2)c(F)c1 [Example 74, 1-(3,5-Difluoro-4-(3-(6-(4-(methylsulfonyl)piperazin-1-yl)pyridin-3-yl)-1H-pyrazolo[4,3-d]pyrimidin-5-yl)phenyl)-N-methylmethanamine]",≥ 7.00
6,"COc1cccc(F)c1-c1ncc2[nH]nc(-c3ccc(C(C)(C)C#N)cc3)c2n1 [Example 42, 2-(4-(5-(2-Fluoro-6-methoxyphenyl)-1H-pyrazolo[4,3-d]pyrimidin-3-yl)phenyl)-2-methylpropanenitrile]",≥ 7.00
7,"CNCc1cc(F)c(-c2ncc3[nH]nc(-c4ccc(N5CCO[C@@H](COC)C5)nc4)c3n2)c(C(F)(F)F)c1 [Example 126, (R)-1-(3-Fluoro-4-(3-(6-(2-(methoxymethyl)morpholino)pyridin-3-yl)-1H-pyrazolo[4,3-d]pyrimidin-5-yl)-5-(trifluoromethyl)phenyl)-N-methylmethanamine]",≥ 7.00
8,"CN1CCN(c2ccc(-c3n[nH]c4cnc(-c5cncc(C(=O)N6CCOCC6)c5)nc34)cc2)CC1 [Example 8, (5-(3-(4-(4-Methylpiperazin-1-yl)phenyl)-1H-pyrazolo[4,3-d]pyrimidin-5-yl)pyridin-3-yl)(morpholino)methanone]",≥ 7.00
9,"COc1cccc(F)c1-c1ncc2[nH]nc(-c3ccc(CN4CCOCC4)cc3)c2n1 [Example 24, 4-(4-(5-(2-Fluoro-6-methoxyphenyl)-1H-pyrazolo[4,3-d]pyrimidin-3-yl)benzyl)morpholine]",≥ 7.00
10,"COc1cccc(F)c1-c1ncc2[nH]nc(-c3ccc(C(=O)N(C)C)cc3)c2n1 [Example 22, 4-(5-(2-Fluoro-6-methoxyphenyl)-1H-pyrazolo[4,3-d]pyrimidin-3-yl)-N,N-dimethylbenzamide]",6.30 to 7.00
11,"NC1CCc2cc(F)c(-c3ncc4[nH]nc(-c5ccc(N6CCOCC6)nc5)c4n3)c(F)c21 (stereo not shown) [Example 118, 5,7-Difluoro-6-(3-(6-morpholinopyridin-3-yl)-1H-pyrazolo[4,3-d]pyrimidin-5-yl)-2,3-dihydro-1H-inden-1-amine]",≥ 7.00
12,"CNc1ncc(-c2n[nH]c3cnc(-c4c(F)cc5c(c4F)CNCC5)nc23)cn1 [Example 94, 5-(5-(6,8-Difluoro-1,2,3,4-tetrahydroisoquinolin-7-yl)-1H-pyrazolo[4,3-d]pyrimidin-3-yl)-N-methylpyrimidin-2-amine]",≥ 7.00
13,"COc1ccccc1-c1ncc2[nH]nc(-c3ccc(N4CCN(C)CC4)cc3)c2n1 [Example 3, 5-(2-Methoxyphenyl)-3-(4-(4-methylpiperazin-1-yl)phenyl)-1H-pyrazolo[4,3-d]pyrimidine]",≥ 7.00
14,"COc1cccc(F)c1-c1ncc2[nH]nc(-c3ccn(C)c(=O)c3)c2n1 [Example 49, 4-(5-(2-Fluoro-6-methoxyphenyl)-1H-pyrazolo[4,3-d]pyrimidin-3-yl)-1-methylpyridin-2(1H)-one]",≥ 7.00
15,"CC(=O)N1CCN(c2ccc(-c3n[nH]c4cnc(-c5c(F)cc6c(c5C)CNCC6)nc34)cc2)CC1 [Example 108, 1-(4-(4-(5-(6-Fluoro-8-methyl-1,2,3,4-tetrahydroisoquinolin-7-yl)-1H-pyrazolo[4,3-d]pyrimidin-3-yl)phenyl)piperazin-1-yl)ethanone]",≥ 7.00

# Continued, values first:
row,pKi,Structure (SMILES)
1,≥ 7.00,"COc1cccc(F)c1-c1ncc2[nH]nc(-c3ccc(C(=O)NC4CCCC4)cc3)c2n1 [Example 32, N-Cyclopentyl-4-(5-(2-fluoro-6-methoxyphenyl)-1H-pyrazolo[4,3-d]pyrimidin-3-yl)benzamide]"
2,≥ 7.00,"CN1CCN(c2ncc(-c3n[nH]c4cnc(-c5c(F)cc6c(c5F)CNCC6)nc34)cn2)CC1 [Example 92, 6,8-Difluoro-7-(3-(2-(4-methylpiperazin-1-yl)pyrimidin-5-yl)-1H-pyrazolo[4,3-d]pyrimidin-5-yl)-1,2,3,4-tetrahydroisoquinoline]"
3,≥ 7.00,"Cc1c2c(cc(F)c1-c1ncc3[nH]nc(-c4ccc(N5CCN(C)CC5)cc4)c3n1)CCNC2 [Example 111, 6-Fluoro-8-methyl-7-(3-(4-(4-methylpiperazin-1-yl)phenyl)-1H-pyrazolo[4,3-d]pyrimidin-5-yl)-1,2,3,4-tetrahydroisoquinoline]"
4,≥ 7.00,"CNCc1cc(F)c(-c2ncc3[nH]nc(-c4cccc(C#N)c4)c3n2)c(F)c1 [Example 64, 3-(5-(2,6-Difluoro-4-((methylamino)methyl)phenyl)-1H-pyrazolo[4,3-d]pyrimidin-3-yl)benzonitrile]"
5,≥ 7.00,"CN1CCN(c2ccc(-c3n[nH]c4cnc(-c5c(F)cc6c(c5F)CNCC6)nc34)cc2)CC1 [Example 99, 6,8-Difluoro-7-(3-(4-(4-methylpiperazin-1-yl)phenyl)-1H-pyrazolo[4,3-d]pyrimidin-5-yl)-1,2,3,4-tetrahydroisoquinoline]"
6,≥ 7.00,"Cc1cncc(-c2ncc3[nH]nc(-c4ccc(N5CCN(C)CC5)cc4)c3n2)c1 [Example 6, 3-(4-(4-Methylpiperazin-1-yl)phenyl)-5-(5-methylpyridin-3-yl)-1H-pyrazolo[4,3-d]pyrimidine]"
7,≥ 7.00,"CNCc1cc(F)c(-c2ncc3[nH]nc(-c4cnc(N5CCOCC5)c(C#N)c4)c3n2)c(F)c1 [Example 68, 5-(5-(2,6-Difluoro-4-((methylamino)methyl)phenyl)-1H-pyrazolo[4,3-d]pyrimidin-3-yl)-2-morpholinonicotinonitrile]"
8,≥ 7.00,"COc1cccc(F)c1-c1ncc2[nH]nc(-c3cccc(N4CCNCC4)c3)c2n1 [Example 27, 5-(2-Fluoro-6-methoxyphenyl)-3-(3-(piperazin-1-yl)phenyl)-1H-pyrazolo[4,3-d]pyrimidine]"
9,≥ 7.00,"COc1cccc(F)c1-c1ncc2[nH]nc(-c3cnn(-c4ccccc4)c3)c2n1 [Example 48, 5-(2-Fluoro-6-methoxyphenyl)-3-(1-phenyl-1H-pyrazol-4-yl)-1H-pyrazolo[4,3-d]pyrimidine]"
10,≥ 7.00,"CN1CCN(Cc2ccc(-c3n[nH]c4cnc(-c5c(F)ccc6c5CCNC6)nc34)cc2)CC1 [Example 106, 6-Fluoro-5-(3-(4-((4-methylpiperazin-1-yl)methyl)phenyl)-1H-pyrazolo[4,3-d]pyrimidin-5-yl)-1,2,3,4-tetrahydroisoquinoline]"
